In paper PMC12751012, “Nanoscale Direct-to-Biology Optimization and Structural Insights into Selective S. aureus TrmD Inhibitors” (Journal of Medicinal Chemistry, 2025):
Several values for one entry are separate records, joined by “and”; a condition that tells them apart may be missing. Equal entries are not always repeated. Structures can show the parent of a compound that is named as a salt.

Columns and labels:
Assay type in all cases: binding
S. aureus TrmD [1] = target: T1, S. aureus TrmD (Staphylococcus aureus, UniProt Q2FZ43); test: Fluorescence polarization (FP) assay, tracer 4, S. aureus TrmD
T1 construct: made in house; host or cells: E. coli BL21
T1 sequence (Q2FZ43 1-245): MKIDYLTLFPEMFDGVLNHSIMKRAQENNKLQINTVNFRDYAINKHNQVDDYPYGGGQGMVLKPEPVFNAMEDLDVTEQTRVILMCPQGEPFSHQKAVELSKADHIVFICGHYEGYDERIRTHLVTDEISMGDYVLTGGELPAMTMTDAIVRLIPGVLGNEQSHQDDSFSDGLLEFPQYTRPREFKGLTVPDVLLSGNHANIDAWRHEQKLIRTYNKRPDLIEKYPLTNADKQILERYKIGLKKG
Description: To enable the screening of hundreds of nanomole-scale synthesized compounds, the implementation of a high-throughput-capable RNA methyltransferase (MTase) assay is considered fundamental. […] In this assay format, a fluorescent, SAM-pocket binding tracer can be displaced by the compound under investigation, and the resulting change in fluorescence polarization defines the read-out of the inhibitor compound’s affinity (Figure A).
(§1) Fluorescence polarization (FP) assays were performed as follows. The assays for H. influenzae TrmD have been described previously. All assays were conducted in technical triplicate using black 96-well half area plates. For the FP assays, a tracer (20 nM Cy5TPD for E. coli and H. influenzae TrmD, 10 nM tracer 4 for S. aureus TrmD) was mixed with the respective enzyme (2 μM E. coli TrmD, 2 μM H. influenzae TrmD, 500 nM S. aureus TrmD) in buffer (E. coli and H. influenzae TrmD: 50 mM HEPES, 500 mM NaCl, 5% Glycerol, pH 7.5, S. aureus TrmD: 40 mM Tris HCl, 100 mM NaCl, 10 mM MgCl2, 5% Glycerol, pH 7.5). The compounds were added in varying concentrations for K D-value determination. […] The Z-factor for tracer 4 was determined by measuring 48 replicates of the free tracer (positive controls, PC) and 48 replicates of a mixture of enzyme and tracer (negative controls, NC). The Z-factor is defined in terms of the means (μ) and standard deviations (σ) of the positive and negative controls and calculated as Z = 1–(3*(σnc + σpc)/(μnc–μpc)). […] Polarization values (mP) were determined from polarization-specific parallel and orthogonal fluorescence intensities. K D-values were calculated in GraphPad Prism 8.0.1 using the four-parameter Hill equation: y(% tracer bound) = bottom + ([ligand]-slope) × (top–bottom)/([ligand]-slope + K Dslope).

S. aureus TrmD [2] = target: T1, S. aureus TrmD; test: Isothermal titration calorimetry (ITC) on recombinant S. aureus TrmD
Description: (§2) Experiments were conducted in the S. aureus TrmD SEC buffer (40 mM Tris, pH 7.5, 100 mM NaCl, 10 mM MgCl2, 5% glycerol) for the S. aureus enzyme. The H. influenzae enzyme was buffer exchanged into its ITC buffer (50 mM HEPES, pH 7.5; 500 mM NaCl; 5% glycerol) using Amicon Ultra-15 centrifugal filter units (Merck) prior to use. Compound 1 (BLD Pharmatech) and compound 2 were dissolved in DMSO to a final concentration of 20.0 and 11.6 mM, respectively, and diluted in ITC buffer to give ligand solutions at 1 and 0.58 mM, respectively. Due to a low enthalpy signal, a low c-value titration was performed for compound 1. In this type of experiment, the ligand is typically added at high concentration and in large excess relative to its binding partner, driving more binding events per injection. This causes the equivalence point to be reached after only a few injections and leads to the loss of the characteristic sigmoidal binding curve. TrmD was diluted to a final concentration of 50 μM, and DMSO was added to a final concentration of 5% to match the buffers. ITC measurements were performed using a MicroCal PEAQ-ITC Automated workstation (Malvern Panalytical) equipped with a 200 μL Hastelloy cell and a 40 μL injection syringe. […] Data were analyzed and fitted using the MicroCal PEAQ-ITC Analysis Software 1.21 and plotted in GraphPad Prism 8.0.1.

H. influenzae TrmD [3] = target: T2, H. influenzae TrmD (Haemophilus influenzae, UniProt P43912); test: Isothermal titration calorimetry (ITC) on H. influenzae TrmD
T2 construct: host or cells: E. coli BL21
Description: as §2

H. influenzae TrmD [4] = target: T2, H. influenzae TrmD; test: Fluorescence polarization (FP) assay, tracer 3 (Cy5TPD), H. influenzae TrmD; details: tracer, enzyme concentration varied; read-out: KD of fluorescent tracer, H. influenzae TrmD (FP)
Description: as §1

S. aureus TrmD [5] = target: T1, S. aureus TrmD; test: Fluorescence polarization (FP) assay, tracer 4, S. aureus TrmD; details: enzyme concentration varied, read-out: KD of fluorescent tracer, S. aureus TrmD (FP)
S. aureus TrmD [6] = target: T1, S. aureus TrmD; test: nanoSAR direct-to-biology FP displacement screening of crude triazoles; details: crude triazole at 1 μM, assuming full conversion; 500 nM TrmD, 10 nM tracer 4; read-out: % displaced tracer
Method in brief: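 Crude CuAAC triazoles from alkyne 7 and 320 diverse azides were screened by FP displacement of 10 nM tracer 4 from 500 nM S. aureus TrmD. Buffer was 40 mM Tris HCl, 100 mM NaCl, 10 mM MgCl2, 5% glycerol, pH 7.5.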

[7] = KD S. aureus TrmD (FP displacement assay), apparent affinity, purified compound, 500 nM TrmD, 10 nM tracer 4
[8] = apparent affinity, purified compound, 500 nM TrmD, 10 nM tracer 4, read-out: KD S. aureus TrmD (FP displacement assay)

T2 sequence (P43912 whole entry): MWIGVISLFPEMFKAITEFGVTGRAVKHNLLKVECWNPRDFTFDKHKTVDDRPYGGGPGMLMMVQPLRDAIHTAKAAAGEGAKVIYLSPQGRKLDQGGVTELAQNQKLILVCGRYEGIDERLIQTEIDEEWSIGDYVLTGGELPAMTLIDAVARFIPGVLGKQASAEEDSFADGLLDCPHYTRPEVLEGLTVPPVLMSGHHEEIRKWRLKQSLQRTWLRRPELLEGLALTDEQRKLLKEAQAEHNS

Oc1ncnc2scc(-c3ccccc3)c12 [Compound 1, O=C1NC=NC2=C1C(C3=CC=CC=C3)=CS2]
Kd (S. aureus TrmD [1]; [7]): 28.6 µM
Kd (S. aureus TrmD [2]): 19.8 µM
Kd (H. influenzae TrmD [3]): 24.3 ± 6.16 µM

NCc1ccc(CNC(=O)c2csc3nc[nH]c(=O)c23)cc1 [Compound 2, N-(4-(Aminomethyl)benzyl)-4-oxo-3,4-dihydrothieno[2,3-d]pyrimidine-5-carboxamide]
Kd (S. aureus TrmD [1]; [7]): 13.8 µM
Kd (S. aureus TrmD [2]): 12.9 µM
Kd (H. influenzae TrmD [3]): 4.55 ± 0.31 µM

CN1/C(=C/C=C/C=C/C2=[N+](CCCCCC(=O)NCCCn3cc(CNC(=O)c4csc5nc[nH]c(=O)c45)nn3)c3ccccc3C2(C)C)C(C)(C)c2ccccc21 [Compound 3, reference compound]
Kd (H. influenzae TrmD [4]): 2 µM and 2.02 µM
Kd (S. aureus TrmD [5]): 23.3 µM

CN1/C(=C/C=C/C=C/C2=[N+](CCCCCC(=O)NCCCn3cc(-c4c[nH]c5nc[nH]c(=O)c45)nn3)c3ccccc3C2(C)C)C(C)(C)c2ccccc21 [Compound 4, 3,3-Dimethyl-1-(6-oxo-6-((3-(4-(4-oxo-4,7-dihydro-3H-pyrrolo[2,3-d]pyrimidin-5-yl)-1H-1,2,3-triazol-1-yl)propyl)amino)hexyl)-2-((1E,3E)-5-((E)-1,3,3-trimethylindolin-2-ylidene)penta-1,3-dien-1-yl)-3H-indol-1-ium trifluoroacetate]
Kd (S. aureus TrmD [5]): 0.659 µM and 0.66 µM

O=c1[nH]cnc2[nH]cc(-c3cn([C@H]4COC[C@@H]4n4cccn4)nn3)c12 [Compound 04D04, O=C1NC=NC=2NC=C(C=3N=NN(C3)[C@@H]4[C@@H](N5N=CC=C5)COC4)C12]
inhibition at 1 µM (S. aureus TrmD [6]): 51%

O=C1CC[C@@H](Cn2cc(-c3c[nH]c4nc[nH]c(=O)c34)nn2)O1 [Compound 04E02, O=C1O[C@H](CN2N=NC(C=3C=4C(=O)NC=NC4NC3)=C2)CC1]
inhibition at 1 µM (S. aureus TrmD [6]): 22%

O=c1[nH]cnc2[nH]cc(-c3cn(Cc4nnc(C5CC5)o4)nn3)c12 [Compound 04E03, O=C1NC=NC=2NC=C(C=3N=NN(C3)CC=4OC(=NN4)C5CC5)C12]
inhibition at 1 µM (S. aureus TrmD [6]): 44%

COc1ccc(C)cc1[C@@H](C)n1cc(-c2c[nH]c3nc[nH]c(=O)c23)nn1 [Compound 04E04, O=C1NC=NC=2NC=C(C=3N=NN(C3)[C@@H](c4c(OC)ccc(c4)C)C)C12]
inhibition at 1 µM (S. aureus TrmD [6]): 65%

O=c1[nH]cnc2[nH]cc(-c3cn(Cc4ccno4)nn3)c12 [Compound 04F02, O=C1NC=NC=2NC=C(C=3N=NN(C3)CC=4ON=CC4)C12]
inhibition at 1 µM (S. aureus TrmD [6]): 92%

O=c1[nH]cnc2[nH]cc(-c3cn(C[C@H](O)c4ccccc4)nn3)c12 [Compound 04F03, O=C1NC=NC=2NC=C(C=3N=NN(C3)C[C@H](O)c4ccccc4)C12]
inhibition at 1 µM (S. aureus TrmD [6]): 57%

O=c1[nH]cnc2[nH]cc(-c3cn(-c4ccccc4)nn3)c12 [Compound 04F04, O=C1NC=NC=2NC=C(C=3N=NN(c4ccccc4)C3)C12]
inhibition at 1 µM (S. aureus TrmD [6]): 33%

Cc1c[nH]nc1Cn1cc(-c2c[nH]c3nc[nH]c(=O)c23)nn1 [Compound 04G01, O=C1NC=NC=2NC=C(C=3N=NN(C3)CC4=NNC=C4C)C12]
inhibition at 1 µM (S. aureus TrmD [6]): 87%

O=c1[nH]cnc2[nH]cc(-c3cn(CCc4ccccn4)nn3)c12 [Compound 04G02, O=C1NC=NC=2NC=C(C=3N=NN(C3)CCc4ncccc4)C12]
inhibition at 1 µM (S. aureus TrmD [6]): 89%

O=C1NCCN1CCn1cc(-c2c[nH]c3nc[nH]c(=O)c23)nn1 [Compound 04G03, O=C1N(CCN2N=NC(C=3C=4C(=O)NC=NC4NC3)=C2)CCN1]
inhibition at 1 µM (S. aureus TrmD [6]): 15%

O=c1[nH]cnc2[nH]cc(-c3cn(Cc4nccs4)nn3)c12 [Compound 04G04, S1C(=NC=C1)CN2N=NC(C=3C=4C(=O)NC=NC4NC3)=C2]
inhibition at 1 µM (S. aureus TrmD [6]): 68%

C[C@H](c1csc2ccccc12)n1cc(-c2c[nH]c3nc[nH]c(=O)c23)nn1 [Compound 04H01, S1c2c(cccc2)C(=C1)[C@H](N3N=NC(C=4C=5C(=O)NC=NC5NC4)=C3)C]
inhibition at 1 µM (S. aureus TrmD [6]): 87%

NC(=O)C1(n2cc(-c3c[nH]c4nc[nH]c(=O)c34)nn2)CC1 [Compound 04H02, O=C1NC=NC=2NC=C(C=3N=NN(C3)C4(C(=O)N)CC4)C12]
inhibition at 1 µM (S. aureus TrmD [6]): 33%

O=c1[nH]cnc2[nH]cc(-c3cn(C[C@@H]4CCCCC4(F)F)nn3)c12 [Compound 04H03, F[C@@]1(F)[C@H](CN2N=NC(C=3C=4C(=O)NC=NC4NC3)=C2)CCCC1]
inhibition at 1 µM (S. aureus TrmD [6]): 78%

O=c1[nH]cnc2[nH]cc(-c3cn(-c4cccc(F)c4)nn3)c12 [Compound 04H04, Fc1cc(N2N=NC(C=3C=4C(=O)NC=NC4NC3)=C2)ccc1]
inhibition at 1 µM (S. aureus TrmD [6]): 16%

C#Cc1c[nH]c2nc[nH]c(=O)c12 [Compound 7, 5-Ethynyl-3,7-dihydro-4H-pyrrolo[2,3-d]pyrimidin-4-one]
Kd (S. aureus TrmD [1]; [8]): > 100 µM

CC(=O)NCCCn1cc(-c2c[nH]c3nc[nH]c(=O)c23)nn1 [Compound 8a, N-(3-(4-(4-Oxo-4,7-dihydro-3H-pyrrolo[2,3-d]pyrimidin-5-yl)-1H-1,2,3-triazol-1-yl)propyl)acetamide]
Kd (S. aureus TrmD [1]; [8]): 10.4 ± 1.8 µM
Kd (S. aureus TrmD [1]; crude nanomole-scale reaction mixture, read-out: KD(in situ) S. aureus TrmD (FP displacement assay)): 4.98 µM
